Measured values from US5409946A, “Isoxazole, isothiazole and pyrazole compounds that enhance cognitive function” (Abbott Laboratories, priority 1993, dated 1995).

Experiments:
spike wave discharges = assay: Attenuation of petit mal absence-like spike wave discharges (EEG); format: in vivo, male Wistar rats; settings: for Total spike wave duration: p < 0.05
Procedure: Animals: Male albino rats of the Wistar strain (CAMM Research) were maintained on a 12:12 hour light-dark cycle and individually housed throughout these experiments. They were fed standard rodent diet with food and water provided ad libitum.
EEG Recordings: To record spike wave discharges, rats were surgically implanted with permanently affixed EEG electrodes over the frontal codex using previously described techniques (Radek, Brain Res., 1993, in press). After at least a ten day recovery from this surgery, EEG recordings were made inside darkened sound attenuating chambers. Rats were allowed to move freely within the chambers and computerized activity monitors recorded animal motion during these studies. Only those rats that express spike wave discharges, as identified from preliminary recordings, were used to test the effects of nicotinic agents.
Drug studies: EEG recordings were obtained from each rat for a period of 20 minutes of total waking immobility immediately after administration of drug, or a drug-free control solution. Immobility was characterized as the absence of infrared beam interruptions from the activity monitor system. Spike wave activity was identified as regular 6-10 Hz complexes with amplitudes of 0.4 to 1.0 mV. The total spindling duration for 20 minutes of waking immobility was calculated by determining the length (in seconds) of each spike wave burst, and adding each of these times together to obtain a total spindle time for the recording session. Each rat was administered the control solution and one or two doses of the test compounds and each dosing was given at least 48 hours after the previous treatment.
The compound of Example 2 was dissolved in saline to the desired concentration.

[1] = test system: anxiety induced by (-)-nicotine withdrawal; assay: Elevated plus-maze 48 hours after withdrawal of 14-day chronic (-)-nicotine; format: in vivo, rats; settings: for TIME OPEN ARMS: chronic (-)-nicotine, mean ± SEM
Excerpt: The mouse elevated plus-maze is a conflict test that probes anxiolytic activity of test compounds (Lister, Psychopharmacology, 1987, 92:180). It is based on the fact that exposure of mice to an elevated open arm leads to an avoidance response considerably stronger than that evoked by exposure to an enclosed arm. Compounds may be tested for their ability to modify the avoidance response of the animal to the open arm maze. […] The effect of such potential anti-anxiety drugs may be tested further in a withdrawal challenge test.
Elevated Plus-Maze: The procedure originally described by Pellow et al., for rats was used, with minor modifications (Pellow et al., J. Neurosci. Meth., 14: 149, 1985). The apparatus consisted of two open arms (50×10 cm) and two enclosed arms (50×10×40 cm) extending from a central platform (10×10 cm). It was mounted on a base raising 50 cm above the floor. Light levels on the open and enclosed arms were similar. The animals were placed in the center of the maze and the time spent in the open arms and the total distance traveled by the rat were recorded automatically by a camera mounted above the apparatus, then analyzed by computer (Videomex™ software, Columbus Instruments, Columbus, Ohio). All animals used were naive to the apparatus. Animals were injected i.p. with saline or the different drug doses, and submitted to the test 30 minutes later. The test lasted 5 minutes, and the apparatus was thoroughly cleaned after removal of the animal.
The pumps were removed on day 14 and the animals were tested in the plus-maze 48 hours later, at the time when a state of withdrawal-induced anxiety was present in the rats. On the test day i.p. doses of either saline or the compound of Example 2 were administered to the animals 30 minutes before the test. Data (Table 13) represent the mean ±SEM time spent in the open arms of the plus-maze of 8-16 rats.

Cc1cc([C@@H]2CCCN2C)on1.O=C(O)C(=O)O [Example 2, 3-Methyl-5-(1-methyl-2(S)-pyrrolidinyl)-isoxazole oxalate salt]
Total spike wave duration (spike wave discharges; Table 8, 1.9 μmol/kg i.p.): 26.7 ± 9.2 s | Total spike wave duration (spike wave discharges; Table 8, 6.2 μmol/kg i.p.): 33.1 ± 10.2 s | Total spike wave duration (spike wave discharges; Table 9, 10 μmol/kg p.o.): 25.6 ± 7.5 s | Total spike wave duration (spike wave discharges; Table 11, 6.2 μmol/kg i.p.): 8.2 ± 3.8 s | effect on incidence of spike wave discharges (spike wave discharges; i.p., 20 min waking immobility, p<0.05 where significant): significantly lowered the incidence of spike wave discharges | effect on incidence of spike wave discharges (spike wave discharges; oral, 10.0 μmol/kg, p<0.05): significantly lowered the incidence of spike wave discharges | effect on time spent in the open arms ([1]; 48 h after withdrawal of chronic (-)-nicotine): significant increase in the time spent in the open arms | TIME OPEN ARMS ([1]; challenge 0.19 μmol/kg i.p.): 36.8 ± 12.5 s | TIME OPEN ARMS ([1]; challenge 0.62 μmol/kg i.p., **p < 0.05 against chronic nicotine, saline-challenged): 73.6 ± 7.7 s | TIME OPEN ARMS ([1]; challenge 1.9 μmol/kg i.p.): 43.1 ± 10.1 s
